From patent US10391066B2, “Compositions and methods for the treatment of Parkinson's disease” (Texas Tech University System, priority 2012, dated 2019)

Columns and labels:
PP2A [1] = molecular target: T1, PP2A (Homo sapiens, UniProt P67775); assay: PP2A activity in response to ceramides and FTY720 compounds (FIG. 8); format: biochemical; details: for PP2A activity in response to Ceramides: FIG. 8A; for PP2A activity in response to compounds: FIG. 8B, C2 ceramide as internal control
[2] = tested on: control and mutant A53T Syn PD mice; assay: Anxiety levels in control and mutant A53T Syn PD mice (FIG. 7B); format: in vivo, mouse
PP2A [3] = assay: PP2A activity, cellular assay (FIG. 4B); format: cell-based
rPP2A = rPP2A (Homo sapiens, UniProt P67775); assay: recombinant PP2A (rPP2A) activity with FTY720 compounds; format: biochemical; details: versus rPP2A alone; for effect on rPP2A activity: across tested concentrations
S1P receptors = details: with the exception of S1P2; cited from earlier work
[4] = tested on: C57/B16 Mice mouse model of Parkinson's disease; assay: Paraquat mouse model of Parkinson's disease, brain immunohistochemistry (FIG. 5); format: in vivo
PP2A [5] = molecular target: T1, PP2A; assay: PP2A activity, cell free assay (FIG. 4A); format: biochemical
[6] = tested on: control and mutant A53T Syn PD mice; assay: Grip strength in control and mutant A53T Syn PD mice (FIG. 7A); format: in vivo, mouse; details: 5 month old mice, FTY720 twice a week for 14 weeks versus vehicle
[7] = tested on: BDNF expression in neurons; assay: BDNF trophic factor expression in neurons (FIG. 6); format: cell-based
[8] = tested on: PP2A in mouse adrenal gland; assay: PP2A activity in mouse adrenal gland after single dosing (FIG. 9B, 9D, 9F); format: in vivo; details: for effect on PP2A in mouse adrenal gland, IV delivery: single dose (FIG. 9D, 9F)

T1 sequence (P67775 whole entry): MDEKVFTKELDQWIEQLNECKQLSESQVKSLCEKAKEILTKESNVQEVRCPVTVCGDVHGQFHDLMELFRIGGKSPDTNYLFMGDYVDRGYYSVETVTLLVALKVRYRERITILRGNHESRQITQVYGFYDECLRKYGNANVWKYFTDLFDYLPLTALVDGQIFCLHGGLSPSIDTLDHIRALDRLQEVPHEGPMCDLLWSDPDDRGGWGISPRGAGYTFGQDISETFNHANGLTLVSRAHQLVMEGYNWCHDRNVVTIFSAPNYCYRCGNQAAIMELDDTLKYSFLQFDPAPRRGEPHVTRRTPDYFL
rPP2A, sequence (P67775 whole entry): as above

For CCCCCCCCCCCCC/C=C/[C@@H](O)[C@H](CO)NC(C)=O [C2 ceramide], the “PP2A activity in response to Ceramides” value (PP2A [1]) was “able to stimulate PP2A activity” and the “PP2A activity in response to compounds” value (PP2A [1]) was “significantly stimulate PP2A activity”.

In the case of CCCCCCCCCCCCCC=CC(O)C(CO)NC(=O)CCCCC (stereo not shown) [Ceramide C6], the “PP2A activity in response to Ceramides” value (PP2A [1]) was “able to stimulate PP2A activity”.

In the case of CCCCCCCCc1ccc(CCC(N)(CO)CO)cc1 [FTY720, 2-amino-2-[2-(4-octylphenyl)ethyl]-1,3-propanediol], the anxiety levels [2] was “reduces anxiety levels”, the “PP2A activity, cellular” value (PP2A [3]) was “stimulates PP2A activity” and the “effect on rPP2A activity at 10 uM” value (rPP2A) was “not significantly greater than rPP2A alone”. The “effect on rPP2A activity” value (rPP2A) was “increases rPP2A activity more at lower concentrations than at higher concentrations”, the “agonism of S1P receptors” value (S1P receptors) was “potent agonists of S1P receptors with the exception of S1P2” and the Paraquat toxicity ([4]; C57/B16 mice, FTY720 given before paraquat (PQ)) was “blocks Paraquat Toxicity”. The “paraquat-stimulated increase in Syn in dopamine neurons” value ([4]; PQ given after FTY720, immunohistochemistry, TH-labelled neurons) was “blocks the increase in Syn”, the “neuroinflammation as measured by microglial Ibal staining” value ([4]; adjacent tissue section) was “reduces neuroinflammation” and the “PP2A activity, cell free” value (PP2A [5]) was “stimulates PP2A activity”. For the same compound, the “PP2A activity in response to compounds” value (PP2A [1]) was “significantly stimulate PP2A activity”, the mouse grip strength [6] was “improves mouse grip strength” and the “BDNF expression at the message level” value ([7]; neurons (FIG. 6B)) was “increased BDNF expression at the message level”. The “BDNF at the protein level” value ([7]; neurons treated with FTY720, blot (FIG. 6A)) was “increased BDNF at the protein level”.

In the case of CCCCCCCCc1ccc(CCC(CO)(CO)NC(C)=O)cc1 [FTY720-C2, N-(1-hydroxy-2-(hydroxymethyl)-4-(4-octylphenyl)butan-2-yl)ethanamide], the “effect on PP2A in mouse adrenal gland, IV delivery” value [8] was “stimulatory effects”, the “effect on PP2A in mouse adrenal gland, oral delivery” value ([8]; gavage, single dose (FIG. 9B)) was “stimulatory effects” and the “effect on rPP2A activity” value (rPP2A) was “biggest effect”. For the same compound, the “PP2A activity in response to compounds” value (PP2A [1]) was “significantly stimulate PP2A activity”.

For CCCCCCCCc1ccc(CCC(CO)(CO)NC(=O)CC[P+](c2ccccc2)(c2ccccc2)c2ccccc2)cc1 [FTY720-Mitoxy, (3-(1-hydroxy-2-(hydroxymethyl)-4-(4-octylphenyl)butan-2-ylamino)-3-oxopropyl) triphenyl phosphonium bromide], the “effect on PP2A in mouse adrenal gland, IV delivery” value [8] was “stimulatory effects”, the “effect on rPP2A activity at 10 uM” value (rPP2A) was “significant inhibitory effect” and the “effect on rPP2A activity” value (rPP2A) was “moderate effect”. For the same compound, the “PP2A activity in response to compounds” value (PP2A [1]) was “significantly stimulate PP2A activity”.

For CCCCCCCCc1ccc(CCC(N)(CO)COP(=O)(O)O)cc1 (stereo not shown) [FTY720-P, 2-amino-2-[2-(4-octylphenyl)ethyl]propane-1,3-diol phosphate], the “agonism of S1P receptors” value (S1P receptors) is given as “potent agonists of S1P receptors with the exception of S1P2”.
